One experiment concerns the target T1, BRAF G466V (Homo sapiens, UniProt P15056, G466V).
T1 construct: expressed in transfected cells
The experiment can be described thus: Cellular assay of target protein degradation, T-Rex 293 cells stably transfected with HA-BRAF G466V (HA immunofluorescence, high content imaging). As to conditions: T-Rex 293 HA-BRAF G466V; for DC50: half maximal degradation, read-out: BRaf G466V DC50; for Dmax: maximum degradation observed. Format: cell-based. Summed up:
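24 h compound, 30 nM–3 pM final, 0.1% DMSO, 37° C; HA-BRAF G466V induced with 0.75 ng/mL doxycycline. PFA fix, Triton perm, anti-HA + Alexa fluor secondary, Hoechst/phalloidin counterstain; imaging. DC50, Dmax (% of control).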

Another experiment deals with T2, BRAF V600E (Homo sapiens, UniProt P15056, V600E).
T2 construct: expressed in transfected cells
T2 sequence (P15056 whole entry V600E): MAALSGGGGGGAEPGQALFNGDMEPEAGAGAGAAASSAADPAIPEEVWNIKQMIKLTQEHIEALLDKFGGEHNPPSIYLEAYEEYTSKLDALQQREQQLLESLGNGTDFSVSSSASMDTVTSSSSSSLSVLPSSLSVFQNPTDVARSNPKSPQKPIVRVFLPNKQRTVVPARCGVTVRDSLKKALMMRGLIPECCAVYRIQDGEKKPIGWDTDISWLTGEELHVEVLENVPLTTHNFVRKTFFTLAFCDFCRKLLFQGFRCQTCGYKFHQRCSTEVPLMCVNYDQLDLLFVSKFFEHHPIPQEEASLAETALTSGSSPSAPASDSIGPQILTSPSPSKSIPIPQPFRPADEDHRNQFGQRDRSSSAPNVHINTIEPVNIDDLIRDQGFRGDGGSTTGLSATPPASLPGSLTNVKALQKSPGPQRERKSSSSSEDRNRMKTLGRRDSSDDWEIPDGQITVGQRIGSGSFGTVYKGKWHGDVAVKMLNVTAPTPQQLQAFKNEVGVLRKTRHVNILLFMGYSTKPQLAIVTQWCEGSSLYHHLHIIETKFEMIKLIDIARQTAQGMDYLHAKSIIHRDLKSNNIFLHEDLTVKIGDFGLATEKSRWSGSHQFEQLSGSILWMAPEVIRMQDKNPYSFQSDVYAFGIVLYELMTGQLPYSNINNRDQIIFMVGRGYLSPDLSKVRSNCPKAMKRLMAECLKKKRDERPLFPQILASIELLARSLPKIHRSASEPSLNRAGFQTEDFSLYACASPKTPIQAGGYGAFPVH
In words: Cellular assay of target protein degradation, T-Rex 293 cells stably transfected with HA-BRAF_V600E (HA immunofluorescence, high content imaging). In kind it is cell-based. As to conditions: T-Rex 293 HA-BRAF V600E; for DC50: half maximal degradation, read-out: BRaf V600E DC50; for Dmax: maximum degradation observed. Summed up: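 24 h compound exposure, 1 μM–0.1 nM final, 0.1% DMSO, 37 °C; cells induced with 1 ng/mL doxycycline. PFA fix, Triton permeabilize, anti-HA overnight 4 °C, Hoechst/phalloidin counterstain. Output: DC50, Dmax as % control.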

T1 sequence (P15056 whole entry G466V): as the sequence (P15056 whole entry V600E) above, with G466V, E600V counted along it

With `O=C1CC[C@H](N2Cc3cc(C4CCN(CC5CCN(c6ccc(-c7cnc8[nH]cc(C(=O)c9c(F)ccc(NS(=O)(=O)N%10CC(O)C%10)c9F)c8c7)cc6)CC5)CC4)ccc3C2=O)C(=O)N1` [Compound 279, N-{3-[5-(4-{4-[(4-{2-[(3S)-2,6-dioxopiperidin-3-yl]-1-oxo-2,3-dihydro-1H-isoindol-5-yl}piperidin-1-yl)methyl]piperidin-1-yl}phenyl)-1H-pyrrolo[2,3-b]pyridine-3-carbonyl]-2,4-difluorophenyl}-3-hydroxyazetidine-1-sulfonamide], the DC50 (commonly the midpoint of the concentration-degradation curve) on BRAF G466V lay in the range of 10 to 30 nM; on BRAF V600E, 5 to 50 nM. In addition, the Dmax (commonly the largest share of the target that was removed) on BRAF G466V was greater than 70%; on BRAF V600E, less than 35%.
The like results for `CN(CCO)S(=O)(=O)Nc1ccc(F)c(C(=O)c2c[nH]c3ncc(-c4ccc(N5CCC(CN6CCC(c7ccc8c(c7)CN([C@H]7CCC(=O)NC7=O)C8=O)CC6)CC5)cc4)cc23)c1F` [Compound 280, (3S)-3-(5-{1-[(1-{4-[3-(2,6-difluoro-3-{[(2-hydroxyethyl)(methyl)sulfamoyl]amino}benzoyl)-1H-pyrrolo[2,3-b]pyridin-5-yl]phenyl}piperidin-4-yl)methyl]piperidin-4-yl}-1-oxo-2,3-dihydro-1H-isoindol-2-yl) piperidine-2,6-dione] were, in that order, 1 to 10 nM, 5 to 50 nM, 35 to 70% and 35 to 70%.
For the molecule `CN(C1CC1)S(=O)(=O)Nc1ccc(F)c(C(=O)c2c[nH]c3ncc(-c4ccc(N5CCC(CN6CCC(c7ccc8c(c7)CN([C@H]7CCC(=O)NC7=O)C8=O)CC6)CC5)cc4)cc23)c1F` [Compound 281, (3S)-3-(5-{1-[(1-{4-[3-(3-{[cyclopropyl(methyl)sulfamoyl]amino}-2,6-difluorobenzoyl)-1H-pyrrolo[2,3-b]pyridin-5-yl]phenyl}piperidin-4-yl)methyl]piperidin-4-yl}-1-oxo-2,3-dihydro-1H-isoindol-2-yl) piperidine-2,6-dione], at BRAF G466V, the DC50 fell in the range of 1 to 10 nM and the Dmax lay within 35 to 70%. On BRAF V600E, the DC50 lay in the range of 5 to 50 nM and the Dmax fell in the range of 35 to 70%.
Consider `O=C1CC[C@H](N2Cc3cc(C4CCN(CC5CCN(c6ccc(-c7cnc8[nH]cc(C(=O)c9c(F)ccc(NS(=O)(=O)CCO)c9F)c8c7)cc6)CC5)CC4)ccc3C2=O)C(=O)N1` [Compound 282, N-{3-[5-(4-{4-[(4-{2-[(3S)-2,6-dioxopiperidin-3-yl]-1-oxo-2,3-dihydro-1H-isoindol-5-yl}piperidin-1-yl)methyl]piperidin-1-yl}phenyl)-1H-pyrrolo[2,3-b]pyridine-3-carbonyl]-2,4-difluorophenyl}-2-hydroxyethane-1-sulfonamide], for which the DC50 was 1 to 10 nM at BRAF G466V and 50 to 500 nM at BRAF V600E. Moreover, the Dmax is greater than 70% at BRAF G466V and 35 to 70% on BRAF V600E.
With `COc1c(NS(=O)(=O)N2CC[C@@H](F)C2)ccc(F)c1C(=O)c1c[nH]c2ncc(-c3ccc(N4CCC(CN5CCC(c6ccc7c(c6)CN(C6CCC(=O)NC6=O)C7=O)CC5)CC4)cc3)cc12` (stereo partly drawn) [Compound 283, (3R)-N-[3-(5-{4-[4-({4-[2-(2,6-dioxopiperidin-3-yl)-1-oxo-2,3-dihydro-1H-isoindol-5-yl]piperidin-1-yl}methyl)piperidin-1-yl]phenyl}-1H-pyrrolo[2,3-b]pyridine-3-carbonyl)-4-fluoro-2-methoxyphenyl]-3-fluoropyrrolidine-1-sulfonamide], the DC50 on BRAF G466V fell in the range of 1 to 10 nM; on BRAF V600E, 5 to 50 nM. The Dmax on BRAF G466V is greater than 70%; at BRAF V600E, 35 to 70%.
